According to patent US20250059188A1, “ARYLSULPHONAMIDE COMPOUNDS” (Anaxis Pharma Pty Ltd, priority 2021, published 2025):

Columns and labels:
[1] = target: human RIPK3 (Homo sapiens (Human), UniProt Q9Y572); experiment: KINOMEscan binding assay, human RIPK3; settings: equilibrium dissociation constant
Procedure: (§1) Binding affinity of the test compounds for human MLKL (full length), mouse MLKL (full length), human RIPK1 and human RIPK3 was determined using the KINOMEscan™ technology developed by DiscoverX (USA; http://www.discoverx.com). The assay was conducted according to manufacturer instructions.
(§2) Kinase assays. For most assays, kinase-tagged T7 phage strains were grown in parallel in 24-well blocks in an E. coli host derived from the BL21 strain. E. coli were grown to log-phase and infected with T7 phage from a frozen stock (multiplicity of infection=0.4) and incubated with shaking at 32° C. until lysis (90-150 minutes). The lysates were centrifuged (6,000×g) and filtered (0.2 μm) to remove cell debris. The remaining kinases were produced in HEK-293 cells and subsequently tagged with DNA for qPCR detection. […] The liganded beads were blocked with excess biotin and washed with blocking buffer (SeaBlock (Pierce), 1% BSA, 0.05% Tween 20, 1 mM DTT) to remove unbound ligand and to reduce non-specific phage binding. […] All reactions were performed in polypropylene 384-well plates in a final volume of 20 μL. […] The kinase concentration in the eluates was measured by qPCR.
(§3) An 11-point 3-fold serial dilution of each test compound was prepared in 100% DMSO at 100× final test concentration and subsequently diluted to 1× in the assay (final DMSO concentration=1%). Most Kos were determined using a compound top concentration=30,000 nM.
(§4) KD for each test compound was calculated with a standard dose-response curve using the Hill equation (equation (1)): […]
(§5) The Hill Slope was set to −1.
(§6) Curves were fitted using a non-linear least square fit with the Levenberg-Marquardt algorithm.

[2] = target: human RIPK1 (Homo sapiens (Human), UniProt Q13546); experiment: KINOMEscan binding assay, human RIPK1; settings: equilibrium dissociation constant
human RIPK1, sequence (Q13546 whole entry): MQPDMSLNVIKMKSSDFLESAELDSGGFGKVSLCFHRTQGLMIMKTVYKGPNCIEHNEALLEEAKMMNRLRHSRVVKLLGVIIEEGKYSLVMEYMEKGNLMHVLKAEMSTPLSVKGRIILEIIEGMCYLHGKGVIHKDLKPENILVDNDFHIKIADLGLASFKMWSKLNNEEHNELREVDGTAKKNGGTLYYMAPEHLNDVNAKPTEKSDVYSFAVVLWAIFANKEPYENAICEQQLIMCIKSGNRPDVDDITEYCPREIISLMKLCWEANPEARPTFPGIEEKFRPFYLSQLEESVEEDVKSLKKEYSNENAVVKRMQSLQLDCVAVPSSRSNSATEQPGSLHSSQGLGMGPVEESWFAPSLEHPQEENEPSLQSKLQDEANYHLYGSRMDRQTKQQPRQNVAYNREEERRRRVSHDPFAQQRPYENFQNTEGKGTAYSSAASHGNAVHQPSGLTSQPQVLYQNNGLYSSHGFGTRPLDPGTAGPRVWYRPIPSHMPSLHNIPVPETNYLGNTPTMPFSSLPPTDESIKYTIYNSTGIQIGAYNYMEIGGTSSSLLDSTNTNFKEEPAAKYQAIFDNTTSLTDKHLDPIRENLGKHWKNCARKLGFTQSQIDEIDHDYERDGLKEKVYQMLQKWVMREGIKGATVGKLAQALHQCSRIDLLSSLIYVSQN
Procedure: as §1, §2, §3, §4, §5, §6

[3] = target: human MLKL (full length) (Homo sapiens (Human), UniProt Q8NB16); experiment: KINOMEscan binding assay, human MLKL (full length); settings: equilibrium dissociation constant
human MLKL (full length), sequence (Q8NB16 whole entry): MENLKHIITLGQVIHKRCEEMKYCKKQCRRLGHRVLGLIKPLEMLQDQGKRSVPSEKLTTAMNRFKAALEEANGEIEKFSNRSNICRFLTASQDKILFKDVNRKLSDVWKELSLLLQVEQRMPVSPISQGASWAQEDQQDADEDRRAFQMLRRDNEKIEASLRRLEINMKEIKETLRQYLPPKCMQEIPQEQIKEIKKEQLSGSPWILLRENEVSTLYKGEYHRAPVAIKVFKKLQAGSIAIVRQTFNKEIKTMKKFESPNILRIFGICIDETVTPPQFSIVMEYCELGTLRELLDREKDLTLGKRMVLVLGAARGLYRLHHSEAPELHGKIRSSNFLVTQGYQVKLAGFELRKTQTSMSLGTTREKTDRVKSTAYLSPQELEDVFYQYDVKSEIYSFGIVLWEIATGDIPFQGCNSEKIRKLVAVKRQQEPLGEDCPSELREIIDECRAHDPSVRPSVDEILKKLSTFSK
Procedure: as §1, §2, §3, §4, §5, §6

[4] = system: U937 human histiocytic leukemia cell line; experiment: Inhibition of TSQ induced necroptosis in U937 cells (CellTitre-Glo); settings: Homo sapiens, U-937, TSQ cocktail (TNF, Smac mimetic, Q-VD-OPh), 48 hours, read-out: Inhibition of TSQ-induced necroptosis (IC50 cell-based assay)
Procedure: Cellular Assay: Screening Compounds for Inhibition of TSQ Induced Necroptosis, 384 Well Plate Format.
(§7) • Cell Line ID: U937 human histiocytic leukemia cell line. • Cell Concentration (cells/well): Final cell density is 20000 cells per well. • Cell growth medium: HT-RPMI medium+7.4% Fetal Bovine Serum (FBS). Cells are cultured in Corning 150 cm^2 tissue culture flasks with vented caps at 37° C./5% CO2. • Incubation: Plates were incubated at 37° C./5% CO2 in a humidified incubator for 48 hours following addition of compounds and death stimuli (TSQ cocktail). • Compound concentration: 36 μM starting concentration, 1:3 dilution, 10 point • DMSO final concentration (% v/v): 0.3%. Compounds in TSQ Cocktail (T: TNF; S: Smac Mimetic; Q: Q-VD-OPh) and their Final Concentrations: • hTNF-Fc (100 ng/ml)—produced by standard procedures as shown in Bossen et al., J. Biol. Chem., 2006, 281(20), 13964-13971. • Compound A (500 nM) —Smac mimetic, Tetralogic and SYNthesis med chem • Q-VD-OPh (10 μM) —MP Biomedicals
(§8) The cellular assay was carried out according to the following steps: • 1. Each well was prepared by sequential addition of: • a. DMSO (control; columns 1-2 and 23-24) or compound in DMSO—addition was performed using acoustic transfer of nL volumes of stock compound to give final test concentrations of 36, 12, 4, 1.3, 0.44, 0.148, 0.049, 0.016, 0.005 and 0.002 μM. All wells were backfilled with DMSO to a final total volume in the well of 100 nL. • b. Following compound/DMSO addition in step (a), 40 μL of cell suspension (5×10^5 cells/mL) was added to provide a final cell concentration of 20,000 cells per well, and • c. Following cell addition in step (b), 10 μL of 5×TSQ cocktail (except to positive controls; columns 1 and 23) was added to each well. • 2. After 48 hours, plate was removed from the 37° C. incubator and equilibrated to room temperature for 45 minutes. • 3. 15 μL of room temperature CellTitre-Glo2™ (Promega™) was added to each well. • 4. Shook plates for 2 minutes (˜600 rpm) and incubated at room temperature for 15 minutes to allow signal to stabilise. • 5. Read luminescence readout on a plate reader.
Percent viability was calculated for each compound according to equation (2): […]
(§9) 10 point titration curves were fitted with the 4 parameter logistic nonlinear regression model and the IC50 reported reflect the inflection point of the curve for curve fitting.
(§10) • Assay involving the TSQ cocktail (T: TNF; S: Smac mimetic; Q: Q-VD-OPh): TSQ treatment ensures that cells specifically undergo necroptotic cell death. TNF activates the TNF receptor, Smac mimetic directs the signal away from proinflammatory signaling and toward the RIPK1/RIPK3-mediated cell death pathways, and Q-VD-OPh ensures that the apoptotic response is blocked leaving only the programmed necrosis response. The compounds' activity (solution in DMSO) tested in this TSQ-induced assay was evaluated by determining the number of viable cells in culture by measuring the amount of ATP present as measured by CelltiterGlo. • Counter screen: In parallel, all compounds were tested for their ability to affect cell viability. The same U937 cells were treated with compound in DMSO without the TSQ cocktail. This counter screen enabled evaluation of off-target effects. In this case, cell viability was measured by CelltiterGlo.

[5] = system: U937 cells; experiment: Counter screen: U937 cell viability without TSQ cocktail (off-target effect); set-up: species or system human; settings: Homo sapiens, U-937, compound without TSQ cocktail, read-out: Off-target effect (IC50 cell-based assay)
Procedure: as §7, §8, §9, §10

human RIPK3, sequence (Q9Y572 whole entry): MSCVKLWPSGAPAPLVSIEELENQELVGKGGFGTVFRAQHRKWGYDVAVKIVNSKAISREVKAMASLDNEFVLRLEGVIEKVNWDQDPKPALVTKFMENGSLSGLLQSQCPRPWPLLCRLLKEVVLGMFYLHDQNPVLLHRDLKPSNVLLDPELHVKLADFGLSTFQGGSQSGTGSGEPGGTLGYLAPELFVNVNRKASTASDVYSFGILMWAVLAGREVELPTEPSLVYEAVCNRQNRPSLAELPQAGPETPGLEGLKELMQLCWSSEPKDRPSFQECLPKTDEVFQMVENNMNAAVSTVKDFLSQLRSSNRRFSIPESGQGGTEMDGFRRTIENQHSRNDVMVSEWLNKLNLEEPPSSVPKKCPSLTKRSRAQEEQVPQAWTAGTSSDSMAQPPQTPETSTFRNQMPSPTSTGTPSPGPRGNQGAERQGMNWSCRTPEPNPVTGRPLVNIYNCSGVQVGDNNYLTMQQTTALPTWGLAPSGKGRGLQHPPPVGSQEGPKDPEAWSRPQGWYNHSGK

SMILES | Kd [1] [µM] | Kd [2] [µM] | Kd [3] [nM] | IC50 [4] [nM] | IC50 [5] [µM]
Cc1cc(-c2cnc(N)c3c(-c4ccc(NS(=O)(=O)C(F)F)c(O[C@@H](C)c5ccc(F)cc5)c4)nn(C)c23)ccn1 [Compound 24, (S)-N-(4-(4-amino-1-methyl-7-(2-methylpyridin-4-yl)-1H-pyrazolo[4,3-c]pyridin-3-yl)-2-(1-(4-fluorophenyl)ethoxy)phenyl)-1,1-difluoromethanesulfonamide] | > 10 | > 10 | < 1 | 10 to 1000 | > 10
C[C@H](Oc1cc(-c2nn(C)c3c(-c4cccnc4)cnc(N)c23)ccc1NS(=O)(=O)C(F)F)c1ccc(F)cc1 [Compound 25, (S)-N-(4-(4-amino-1-methyl-7-(pyridin-3-yl)-1H-pyrazolo[4,3-c]pyridin-3-yl)-2-(1-(4-fluorophenyl)ethoxy)phenyl)-1,1-difluoromethanesulfonamide] | > 10 | > 10 | < 1 | 10 to 1000 | > 10
Cc1ccc(-c2cnc(N)c3c(-c4ccc(NS(=O)(=O)C(F)F)c(O[C@@H](C)c5ccc(F)cc5)c4)nn(C)c23)cn1 [Compound 26, (S)-N-(4-(4-amino-1-methyl-7-(6-methylpyridin-3-yl)-1H-pyrazolo[4,3-c]pyridin-3-yl)-2-(1-(4-fluorophenyl)ethoxy)phenyl)-1,1-difluoromethanesulfonamide] | > 10 | > 10 | < 1 | 10 to 1000 | > 10
COc1cc(-c2cnc(N)c3c(-c4ccc(NS(=O)(=O)C(F)F)c(O[C@@H](C)c5ccc(F)cc5)c4)nn(C)c23)ccn1 [Compound 27, (S)-N-(4-(4-amino-7-(2-methoxypyridin-4-yl)-1-methyl-1H-pyrazolo[4,3-c]pyridin-3-yl)-2-(1-(4-fluorophenyl)ethoxy)phenyl)-1,1-difluoromethanesulfonamide] | > 10 | > 10 | 1 to 100 | 10 to 1000 | > 10
COc1ccc(-c2cnc(N)c3c(-c4ccc(NS(=O)(=O)C(F)F)c(O[C@@H](C)c5ccc(F)cc5)c4)nn(C)c23)cn1 [Compound 28, (S)-N-(4-(4-amino-7-(6-methoxypyridin-3-yl)-1-methyl-1H-pyrazolo[4,3-c]pyridin-3-yl)-2-(1-(4-fluorophenyl)ethoxy)phenyl)-1,1-difluoromethanesulfonamide] | > 10 | > 10 | < 1 | 10 to 1000 | > 10
CC(C)n1cc(-c2cnc(N)c3c(-c4ccc(NS(=O)(=O)C(F)F)c(O[C@@H](C)c5ccc(F)cc5)c4)nn(C)c23)cn1 [Compound 31, (S)-N-(4-(4-amino-7-(1-isopropyl-1H-pyrazol-4-yl)-1-methyl-1H-pyrazolo[4,3-c]pyridin-3-yl)-2-(1-(4-fluorophenyl)ethoxy)phenyl)-1,1-difluoromethanesulfonamide] | > 10 | > 10 | < 1 | < 10 | > 10
C[C@H](Oc1cc(-c2cnn3c(-c4cnn(C)c4)cnc(N)c23)ccc1NS(=O)(=O)C(F)F)c1ccc(F)cc1 [Compound 35, (S)-N-(4-(4-amino-7-(1-methyl-1H-pyrazol-4-yl)pyrazolo[1,5-a]pyrazin-3-yl)-2-(1-(4-fluorophenyl)ethoxy)phenyl)-1,1-difluoromethanesulfonamide] | > 10 | > 10 | < 1 | 10 to 1000 | > 10
C[C@H](Oc1cc(-c2cnn3c(-c4cnn(C5CCOCC5)c4)cnc(N)c23)ccc1NS(=O)(=O)C(F)F)c1ccc(F)cc1 [Compound 36, (S)-N-(4-(4-amino-7-(1-(tetrahydro-2H-pyran-4-yl)-1H-pyrazol-4-yl)pyrazolo[1,5-a]pyrazin-3-yl)-2-(1-(4-fluorophenyl)ethoxy)phenyl)-1,1-difluoromethanesulfonamide] | > 10 | > 10 | < 1 | < 10 | > 10

Now from value to molecule, other results behind:

Kd [1] [µM] | Kd [2] [µM] | Kd [3] [nM] | SMILES | IC50 [4] [nM] | IC50 [5] [µM]
> 10 | > 10 | < 1 | COCC(Oc1cc(-c2nn(C)c3c(-c4cnn(C5CCOCC5)c4)cnc(N)c23)ccc1NS(=O)(=O)C(F)F)c1ccc(F)cc1 (racemic) [Compound 102, N-(4-(4-amino-1-methyl-7-(1-(tetrahydro-2H-pyran-4-yl)-1H-pyrazol-4-yl)-1H-pyrazolo[4,3-c]pyridin-3-yl)-2-(1-(4-fluorophenyl)-2-methoxyethoxy)phenyl)-1,1-difluoromethanesulfonamide] | 10 to 1000 | > 10
> 10 | > 10 | < 1 | Cn1cc(-c2cnc(N)c3c(-c4ccc(NS(=O)(=O)C(F)F)c(OCc5ccc(F)cc5)c4)nn(C)c23)cn1 [Compound 16, N-(4-(4-amino-1-methyl-7-(1-methyl-1H-pyrazol-4-yl)-1H-pyrazolo[4,3-c]pyridin-3-yl)-2-((4-fluorobenzyl)oxy)phenyl)-1,1-difluoromethanesulfonamide] | 1000 to 10000 | > 10
> 10 | > 10 | < 1 | C[C@H](Oc1cc(-c2nn(C)c3c(C4=CCN(C)CC4)cnc(N)c23)ccc1NS(=O)(=O)C(F)F)c1ccc(F)cc1 [Compound 21, (S)-N-(4-(4-amino-1-methyl-7-(1-methyl-1,2,3,6-tetrahydropyridin-4-yl)-1H-pyrazolo[4,3-c]pyridin-3-yl)-2-(1-(4-fluorophenyl)ethoxy)phenyl)-1,1-difluoromethanesulfonamide] | 1000 to 10000 | > 10
> 10 | > 10 | 1 to 100 | C[C@H](Oc1cc(-c2nn(C)c3c(-c4ccnc(C(F)(F)F)c4)cnc(N)c23)ccc1NS(=O)(=O)C(F)F)c1ccc(F)cc1 [Compound 23, (S)-N-(4-(4-amino-1-methyl-7-(2-(trifluoromethyl)pyridin-4-yl)-1H-pyrazolo[4,3-c]pyridin-3-yl)-2-(1-(4-fluorophenyl)ethoxy)phenyl)-1,1-difluoromethanesulfonamide] | 1000 to 10000 | > 10
